Where two headings read alike, the source gives them in different places.
Experiments:
HMG-CoA-Reduktase = target: T1, HMG-CoA-Reduktase (Rattus norvegicus, UniProt P51639); assay: Inhibition of HMG-CoA reductase activity in solubilised enzyme preparations from rat liver microsomes; type: biochemical, Ratten; conditions: sodium salts of the dihydroxycarboxylic acids of formula II; substrate (S,R) 14C-HMG-CoA; mean of 3 parallel samples; read-out: IC₅₀
T1 construct: solubilisierten Enzympräparationen aus Ratten-Lebermikrosomen; from tissue; host or cells: rat liver microsomes (cholestyramine-induced rats)
T1 sequence (P51639 1-887): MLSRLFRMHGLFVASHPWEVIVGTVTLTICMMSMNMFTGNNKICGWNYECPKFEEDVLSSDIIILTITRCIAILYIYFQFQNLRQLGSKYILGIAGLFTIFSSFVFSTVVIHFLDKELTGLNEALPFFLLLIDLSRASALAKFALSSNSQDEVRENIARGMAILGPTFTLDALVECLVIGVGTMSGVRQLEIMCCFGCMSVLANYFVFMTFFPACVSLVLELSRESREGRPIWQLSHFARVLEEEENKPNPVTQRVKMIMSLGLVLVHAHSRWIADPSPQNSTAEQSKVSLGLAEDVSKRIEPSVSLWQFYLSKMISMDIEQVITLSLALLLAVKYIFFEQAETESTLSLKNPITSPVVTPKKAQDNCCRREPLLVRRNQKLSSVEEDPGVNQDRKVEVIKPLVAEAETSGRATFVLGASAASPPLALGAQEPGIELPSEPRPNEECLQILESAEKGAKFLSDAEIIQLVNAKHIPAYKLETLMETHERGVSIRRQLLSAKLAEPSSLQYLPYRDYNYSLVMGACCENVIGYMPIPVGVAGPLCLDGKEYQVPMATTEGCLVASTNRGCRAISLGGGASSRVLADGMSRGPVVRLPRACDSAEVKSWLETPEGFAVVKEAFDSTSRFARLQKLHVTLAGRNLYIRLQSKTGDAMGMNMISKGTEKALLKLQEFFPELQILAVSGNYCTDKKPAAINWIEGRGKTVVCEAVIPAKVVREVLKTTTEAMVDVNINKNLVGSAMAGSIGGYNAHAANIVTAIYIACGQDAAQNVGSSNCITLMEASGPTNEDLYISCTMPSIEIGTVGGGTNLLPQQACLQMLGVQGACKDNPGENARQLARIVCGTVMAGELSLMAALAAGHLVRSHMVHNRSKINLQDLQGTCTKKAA
Excerpt: Die HMG-CoA-Reduktase-Aktivität der Natriumsalze der erfindungsgemäßen Verbindungen der Formel II wurde in zwei Testsystemen bestimmt 1) Inhibierung der HMG-CoA-Reduktase-Aktivität an solubilisierten Enzympräparationen aus Ratten-Lebermikrosomen Die HMG-CoA-Reduktase-Aktivität wurde an solubilisierten Enzympräparationen aus Lebermikrosomen von Ratten gemessen, die nach Umstellung im Tag-Nacht-Rhythmus mit Cholestyramin (®Cuemid) induziert wurden. Als Substrat diente (S,R) ¹⁴C-HMG-CoA, die Konzentration von NADPH wurde während der Inkubation durch ein regenerierendes System aufrechterhalten. Die Abtrennung von ¹⁴C-Mevalonat von Substrat und anderen Produkten (z.B. ¹⁴C-HMG) erfolgte über Säulenelution, wobei das Elutionsprofil jeder Einzelprobe ermittelt wurde. Auf die ständige Mitführung von ³H-Mevalonat wurde verzichtet, weil es sich bei der Bestimmung um die Relativangabe der Hemmwirkung handelt. In einer Versuchsreiche wurden jeweils die enzymfreie Kontrolle, der enzymhaltige Normalansatz (= 100 %) und solche mit Präparatezusätzen zusammen behandelt. Jeder Einzelwert wurde als Mittelwert aus 3 Parallelproben gebildet. Die Signifikanz der Mittelwertsunterschiede zwischen präparatefreien und präparatehaltigen Proben wurde nach dem t-Test beurteilt. Nach der oben beschriebenen Methode wurden von den erfindungsgemäßen Verbindungen z.B. folgende Hemmwerte auf die HMG-CoA-Reduktase ermittelt (IC₅₀- (mol/l); molare Konzentration der Verbindung pro Liter, die für eine 50 %ige Hemmung erforderlich ist) Tabelle 1

[1] = target: T2, HMG-CoA-Reduktase in HEP G2-Zellkulturen (Homo sapiens, UniProt P04035); assay: Inhibition of 14C-sodium acetate incorporation into cholesterol in HEP G2 cell cultures; type: cell-based; conditions: for relative Wirkstärke: Mevinolin-Natrium = 100; for IC70: HepG2, 3 h, read-out: IC₇₀
T2 sequence (P04035 1-888): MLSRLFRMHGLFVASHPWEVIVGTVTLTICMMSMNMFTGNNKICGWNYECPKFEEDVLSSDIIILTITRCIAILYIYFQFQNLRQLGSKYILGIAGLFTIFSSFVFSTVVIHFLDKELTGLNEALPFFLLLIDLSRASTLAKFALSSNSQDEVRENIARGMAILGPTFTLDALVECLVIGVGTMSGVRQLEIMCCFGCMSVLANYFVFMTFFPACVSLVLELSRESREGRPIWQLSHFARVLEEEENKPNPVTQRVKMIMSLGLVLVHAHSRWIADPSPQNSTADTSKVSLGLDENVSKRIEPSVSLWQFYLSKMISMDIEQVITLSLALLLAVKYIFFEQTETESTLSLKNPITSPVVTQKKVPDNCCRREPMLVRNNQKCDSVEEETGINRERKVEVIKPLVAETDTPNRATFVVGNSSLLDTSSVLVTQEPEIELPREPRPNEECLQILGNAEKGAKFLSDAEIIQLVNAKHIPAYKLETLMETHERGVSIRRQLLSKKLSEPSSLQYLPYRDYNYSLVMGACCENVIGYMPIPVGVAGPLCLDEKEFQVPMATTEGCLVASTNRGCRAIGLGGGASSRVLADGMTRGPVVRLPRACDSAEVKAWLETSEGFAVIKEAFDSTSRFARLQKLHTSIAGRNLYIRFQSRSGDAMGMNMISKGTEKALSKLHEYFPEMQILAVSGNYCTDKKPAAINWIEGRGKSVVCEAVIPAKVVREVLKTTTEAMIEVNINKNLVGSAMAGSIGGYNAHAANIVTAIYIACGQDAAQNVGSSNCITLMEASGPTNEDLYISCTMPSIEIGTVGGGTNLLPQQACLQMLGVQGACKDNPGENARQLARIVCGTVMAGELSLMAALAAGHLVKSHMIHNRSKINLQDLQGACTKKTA
Excerpt: 2) Supprimierung bzw. Inhibierung der HMG-CoA-Reduktase in HEP G2-Zellkulturen (einer Human-Hepatoma-Zell-Linie) Es erfolgte eine Bestimmung der Inhibition des Einbaus von ¹⁴C-Natriumacetat in Cholesterin. Monolayers von HEP G2-Zellen in RPMJ 1640 Medium mit 10 % von Lipiden befreitem fötalem Kälberserum wurden 1 Stunde mit verschiedenen Konzentrationen der Natriumsalze der Dihydroxycarbonsäuren der Formel II präinkubiert. Nach Zugabe von ¹⁴C-markiertem Natriumacetat wurde die Inkubation 3 Std. fortgesetzt. Tritium-markiertes Cholesterin wurde als interner Standard zugefügt und ein Aliquot der Zellen alkalisch verseift. Die Lipide wurden mit Chloroform/Methanol 2:1 extrahiert. Nach Zugabe von Carrier-Cholesterin wurde das Lipidgemisch präparativ auf DC-Platten mit Chloroform/Aceton 9:1 getrennt. Die Cholesterin-Zone wurde durch Anfärben mit Joddampf sichtbar gemacht, außerdem mit einem DC-Radioscanner detektiert und dann abgeschabt. Die Menge ¹⁴C-Cholesterin wurde szintigraphisch bestimmt. In einem anderen Aliquot der Zell-Monolayers wurde (zur Berechnung der ¹⁴C-Cholesterinbiosynthese pro mg Zell-Protein) das Zellprotein gemessen. Dieselbe Prozedur wurde mit Zellen der gleichen Kultur ohne Präinkubation mit einer Testverbindung durchgeführt (sogenannte "Lösungsmittelkontrolle"). Die Wirkstärke der Testverbindungen wurde bestimmt durch Vergleich des biosynthetisierten ¹⁴C-Cholesterins in Testläufen und bei "Lösungsmittelkontrolle". Die Wirkstärke wurde auf der Basis von Mevinolin-Natriumsalz als externer Standard berechnet. […] Die gemessenen IC's für Testverbindungen (Natriumsalze der Dihydroxycarbonsäuren der Formel II) (Tab. 2) wurden um die Abweichung von Mevinolin-Natrium von seinem Durchschnittswert korrigiert. Mevinolin-Natrium wurde eine relative Wirkstärke von 100 zugewiesen.

[2] = value outside parentheses (matches ratio of IC50 values)

Row | IC50 (HMG-CoA-Reduktase) [nM] | relative Wirkstärke [1, 2] | IC70 ([1]; mean value over different cell batches, external standard) [nM] | SMILES | IC70 ([1]; concentration for 70 % inhibition, sodium salts, corrected for the deviation of Mevinolin-Natrium from its mean value) [nM] | relative Wirkstärke ([1]; value in parentheses (matches ratio of IC70 values))
1 | 17 | 56 |  | CC(C)c1cc(-c2ccc(F)cc2)cc(-c2ccc(F)cc2)c1OC[C@@H](O)C[C@@H](O)CC(=O)O [Beispiel 8c, 3(R),5(S)-Dihydroxy-6-[2-isopropyl-4,6-bis-(4-fluorphenyl)-phenoxy]-hexansäure-Natriumsalz] |  | 
2 | 36 |  |  | CC(C)c1cc(-c2ccc(F)cc2)cc(-c2ccc(F)cc2)c1SC[C@@H](O)C[C@@H](O)CC(=O)O [Beispiel 8g, 3(R),5(S)-Dihydroxy-6-[2-isopropyl-4,6-bis-(4-fluorphenyl)-thiophenoxy]-hexansäure-Natriumsalz] |  | 
3 |  |  | 150 | CCC(C)C(=O)OC1CC(C)C=C2C=CC(C)C(CCC(O)CC(O)CC(=O)O)C21 (centres unmarked) [Mevinolin-Natriumsalz, reference compound] |  | 
4 | 23 | 53 |  | CC(C)c1cc(-c2ccccc2)cc(-c2ccc(F)cc2)c1OC[C@@H](O)C[C@@H](O)CC(=O)O [Beispiel 8d, 3(R),5(S)-Dihydroxy-6-[2-isopropyl-4-phenyl-6-(4-fluorphenyl)-phenoxy-]-hexansäure-Natriumsalz] |  | 
5 | > 100 | < 1 |  | CC(C)c1cc(C(C)(C)C)cc(-c2ccc(F)cc2)c1OC[C@@H](O)C[C@@H](O)CC(=O)O [Beispiel 8b, 3(R),5(S)-Dihydroxy-6-[2-isopropyl-4-tert.-butyl-6-(4-fluorphenyl)-phenoxy]-hexansäure-Natriumsalz] |  | 
6 | 4.8 |  |  | CC(C)c1cc(-c2ccc(F)cc2)c(SC[C@@H](O)C[C@@H](O)CC(=O)O)c(C(C)C)c1 [Beispiel 8f, 3(R),5(S)-Dihydroxy-6-[2-(4-fluorphenyl)-4,6-diisopropylthiophenoxy]-hexansäure-Natriumsalz] |  | 
7 | 5.2 |  |  | CC(C)c1cc(C2CCCCC2)cc(-c2ccc(F)cc2)c1OC[C@@H](O)C[C@@H](O)CC(=O)O [Beispiel 8e, 3(R),5(S)-Dihydroxy-6-[2-isopropyl-4-cyclohexyl-6-(4-fluorphenyl)-phenoxy]-hexansäure-Natriumsalz] |  | 

Row | SMILES | IC50 (HMG-CoA-Reduktase) [nM] | relative Wirkstärke [1, 2] | IC70 ([1]; mean value over different cell batches, external standard) [nM] | IC70 ([1]; concentration for 70 % inhibition, sodium salts, corrected for the deviation of Mevinolin-Natrium from its mean value) [nM] | relative Wirkstärke ([1]; value in parentheses (matches ratio of IC70 values))
8 | CC(C)c1cc(-c2ccc(F)cc2)c(OC[C@@H](O)C[C@@H](O)CC(=O)O)c(C(C)C)c1 [Beispiel 8a, 3(R),5(S)-Dihydroxy-6-[2-(4-fluorphenyl)-4,6-diisopropylphenoxy]-hexansäure-Natriumsalz] | 2.3 | 185 |  | 70 | 214
